Source: patent US20160368919A1, “NOVEL PYRIDINE PYRAZINONES AS BET-FAMILY BROMODOMAIN INHIBITORS” (Pfizer Inc., priority 2015, published 2016)
Entries after “also recorded” stand apart in the source; their conditions may differ.

Tests used:
Type in all cases: cell-based
HCC2429 cells = test: NMC HCC2429 cell proliferation assay (CellTiter-Glo); details: Homo sapiens; HCC2429, CTG at 96h
Description: NMC HCC2429 Cell Proliferation Assay • HCC2429 cells were plated into a 96-well plate (10,000 cells/well). Compounds or control vehicle (DMSO) were added at indicated concentrations. Compound-treated HCC2429 cells were analyzed for cell density at 96h using CellTiter-Glo® (CTG) reagent (Promega).

[1] = tested on: c-MYC and MYB expression in MM1.S cells; test: Biomarker analysis in MM1.S cells (RT-PCR, Western blot)
Description: MM1.S cells (1,000,000 cells) were seeded in […] in 10 mL medium. On the following day cells were treated with indicated compounds for 0, 2, 4, 6, 8, 16, and 24 hours. Cells were collected, washed in PBS, and split for western blot and RNA analysis. For western blot, cells were lysed in RIPA buffer and 30 ug protein was loaded on a 4-12% bis-tris gel under denaturing conditions and transferred to nitrocellulose. Blots were probed with primary antibodies for c-MYC (Cell Signaling #9402) and GAPDH (Cell Signaling #2118) diluted at 1:1000 and then secondary antibodies anti-mouse 680 (LiCor) and anti-rabbit 800 (Licor) and imaged on a LiCor reader. For gene expression analysis, total RNA was prepared using Qiagen total RNA kit (Qiagen) and cDNA was prepared from 100 ng RNA (high capacity cDNA kit; Applied Biosystems). Relative gene expression was analyzed on an Applied Biosystem 7900 qPCR thermocycler using gene expression assays for MYC (Hs00153408_m1), MYB (Hs00920556_m1), and GAPDH (Hs02758991_g1). Relative gene expression is calculated relative to DMSO and normalized to GAPDH expression.

[2] = tested on: CRPC cell lines (LnCaP, C4-2, C4-2AR-WT, C4-2AR-F876L, DU-145); test: CRPC cell proliferation assay, summary over the cell lines; details: AR(+) cell lines, CTG at 96h
Description: Castrate-Resistant Prostate Cancer (CRPC) Cell Proliferation Assay • Cells were seeded into 96-well plates at 2,000-10,000 cells/well in 100 uL medium. Four AR(+) cell lines (LnCaP, C4-2 (parental), C4-2AR-WT and C4-2AR—F876L) and one AR(−) cell line (DU-145) were studied. Compound treated cells were analyzed for cell density at 96h, using CellTiter-Glo® (CTG) reagent (Promega). […] Example 10 and IBET-151 BET had submicromolar IC50 values in the AR(+) cell lines. The inhibitors maintained potency in C4-2 cells engineered to express wild type (WT) AR receptor (C4-2-AR-WT), as well as cells engineered to express the F876L mutation (C4-2-AR-F876L) that confers resistance to androgen receptor (AR) antagonists.

C4-2AR-WT cells, AR(+) = test: CRPC cell proliferation assay (CellTiter-Glo), C4-2AR-WT; details: CTG at 96h
Description: (§1) Castrate-Resistant Prostate Cancer (CRPC) Cell Proliferation Assay • Cells were seeded into 96-well plates at 2,000-10,000 cells/well in 100 uL medium. Four AR(+) cell lines (LnCaP, C4-2 (parental), C4-2AR-WT and C4-2AR—F876L) and one AR(−) cell line (DU-145) were studied. Compound treated cells were analyzed for cell density at 96h, using CellTiter-Glo® (CTG) reagent (Promega).

DU-145 cells, AR(−) = test: CRPC cell proliferation assay (CellTiter-Glo), DU-145; details: CTG at 96h
Description: as §1

[3] = tested on: C4-2AR-F876L cells, AR(+); test: CRPC cell proliferation assay (CellTiter-Glo), C4-2AR-F876L; details: CTG at 96h
Description: as §1

[4] = 0.5 uM, RT-PCR time-course 2 to 24 hours

CCC(=O)N(C)c1ccc2nc(NCCC(=O)O)c(=O)n([C@@H](CC)c3ccccc3)c2n1 [Example 10, N-{6-[methyl(propanoyl)amino]-3-oxo-4-[(1S)-1-phenylpropyl]-3,4-dihydropyrido[2,3-b]pyrazin-2-yl}-beta-alanine]
IC50 (HCC2429 cells): 47 nM
expression of c-MYC mRNA relative to GAPDH [1, 4]: strongly down-regulated; also recorded: down-regulated
relative expression of MYB mRNA [1, 4]: down-regulated
relative expression of c-MYC protein ([1]; Western blot, 2, 4, 6, 8, 16 and 24 hours): down-regulated
IC50 values in the AR(+) cell lines [2]: submicromolar
IC50 (C4-2AR-WT cells, AR(+)): 500 nM
Max % Inh (C4-2AR-WT cells, AR(+)): 85%
Max % Inh (DU-145 cells, AR(−)): 55%
IC50 (DU-145 cells, AR(−); Homo sapiens): 1880 nM
IC50 [3]: 560 nM
Max % Inh [3]: 85%
